# Source: patent US20230218774A1, “DRUG ANTIBODY CONJUGATES” (PHARMA MAR, S.A., priority 2019, published 2023)
# Where “and” joins values, the source holds several entries; their conditions need not be identical. Equal entries are not always repeated.
# How the values were obtained:
# Assay type in all cases: cell-based
# [1] = tested on: MCF-7 (breast cancer, HER2−); assay: SRB colorimetric cytotoxicity assay, MCF-7; conditions: Homo sapiens, MCF7, 72 h
# Excerpt: (§1) The aim of the assay was to evaluate the in vitro cytostatic (ability to delay or arrest tumor cell growth) or cytotoxic (ability to kill tumor cells) activity of the samples being tested.
# (§2) The following human tumor cell lines were obtained from the American Type Culture Collection (ATCC): SK-BR-3 (ATCC HB-30), HCC-1954 (ATCC CRL-2338) (both being breast cancer, HER2+), MDA-MB-231 (ATCC HTB-26), MCF-7 (ATCC HTB-22) (both being breast cancer, HER2−).
# (§3) For SK-BR-3, HCC-1954, MDA-MB-231 and MCF-7 cells, a colorimetric assay using Sulforhodamine B (SRB) was adapted for quantitative measurement of cell growth and cytotoxicity, as described by V. Vichai and K. Kirtikara. In “Sulforhodamine B colorimetric assay for cytotoxicity screening”, Nature Protocols, 2006, 1: 1112-1116. Briefly, cells were seeded in 96-well microtiter plates and allowed to stand for 24 hours in drug-free medium before treatment with vehicle alone or with the tested substances for 72 hours. For quantification, cells were washed twice with phosphate buffered saline (PBS), fixed for 15 min in 1% glutaraldehyde solution, rinsed twice with PBS, stained in 0.4% (w/v) SRB with 1% (v/v) acetic acid solution for 30 min, rinsed several times with 1% acetic acid solution and air-dried.
# (§4) Cell survival was expressed in all cases as percentage of control, untreated cell survival. […]
# [2] = tested on: HCC-1954 (breast cancer, HER2+); assay: SRB colorimetric cytotoxicity assay, HCC-1954; conditions: Homo sapiens, HCC1954, 72 h
# Excerpt: as §1, §2, §3, §4
# [3] = tested on: SK-BR-3 (breast cancer, HER2+); assay: SRB colorimetric cytotoxicity assay, SK-BR-3; conditions: Homo sapiens, SK-BR-3, 72 h
# Excerpt: as §1, §2, §3, §4
# [4] = tested on: MDA-MB-231 (breast cancer, HER2−); assay: SRB colorimetric cytotoxicity assay, MDA-MB-231; conditions: Homo sapiens, MDA-MB-231, 72 h
# Excerpt: as §1, §2, §3, §4
smiles,measurement,setting,value
C=C1C[C@](OC)([C@H](O)C(=O)N[C@@H](OC)[C@@H]2C[C@@H](O)C(C)(C)[C@@H](C[C@@H](COC(=O)NCCCNC(=O)CCCCCN3C(=O)C=CC3=O)OC)O2)O[C@H](C)[C@@H]1C (racemic) [DL-2],IC50,[1],0.0759 µg/mL and 97 nM
same,IC50,[2],0.076 µg/mL and 97.1 nM
same,IC50,[3],0.108 µg/mL and 138 nM
same,IC50,[4],0.0652 µg/mL and 83.3 nM
